Values of other authors in patent US20050080252A1, “Process for preparing antiviral nucleoside derivatives” (Roche Palo Alto LLC, priority 2003, published 2005).

What was measured:
[1] = unlike ribavirin

NC(=O)c1ncn([C@H]2O[C@@H](CO)[C@H](O)[C@@H]2O)n1 [levovirin, 1-(3S,4R-dihydroxy-5S-hydroxymethyl-tetrahydro-furan-2S-yl)-1H-[1,2,4]triazole-3 carboxylic acid amide]
direct antiviral activity [1]: does not have direct detectable antiviral activity
immune response / antiviral Th1 cytokine expression (Th1 cytokine expression): stimulates immune responses by enhancing antiviral Th1 cytokine expression
